From ChEMBL document CHEMBL4118021, “Studies of TAK1-centered polypharmacology with novel covalent TAK1 inhibitors” (Bioorg Med Chem, 2017)
Activity calls are given as the source filed them. The calls are words filed in the database; no cut-off is given here.

What was measured:
Format in all cases: cell-based
[1] = molecular target: RuvB-like 2 (Homo sapiens) (UniProt Q9Y230); assay: Binding affinity to RUVBL2 in human NCI-H23 cells at 1 uM by mass spectrometry based pull down assay
[2] = molecular target: Bridging integrator 3 (Homo sapiens) (UniProt Q9NQY0); assay: Binding affinity to BIN3 in human NCI-H23 cells at 1 uM by mass spectrometry based pull down assay
[3] = molecular target: 80S Ribosome (Homo sapiens) (UniProt P08865+P42677+P62753+P15880+P23396+P61247+P62701+P22090+P46782+P62081+P62241+P46781+P46783+P62280+P25398+P62277+P62263+P62841+P62244+P62249+P08708+P62269+P39019+P60866+P63220+P62266+P62847+P62851+P62854+P62979+P62857+P62273+P62861+P39023+P36578+P46777+Q02878+P18124+P62424+P62917+P32969+P27635+P62906+P62913+P30050+P26373+P40429+P50914+P61313+P18621+Q07020+Q02543+P84098+P46778+P35268+P62829+P62750+P83731+P61254+P61353+P46776+P46779+P47914+P62888+P62899+P62910+P49207+P42766+P18077+Q9Y3U8+P83881+P61927+P61513+P63173+P62891+P62945+P05388+P05386); assay: Binding affinity to RPS7 in human NCI-H23 cells at 1 uM by mass spectrometry based pull down assay
[4] = molecular target: T1, Dual specificity mitogen-activated protein kinase kinase 4 (Homo sapiens) (UniProt P45985); assay: Binding affinity to MAP2K4 in human NCI-H358 cells at 1 uM by mass spectrometry based pull down assay
T1 sequence (whole entry): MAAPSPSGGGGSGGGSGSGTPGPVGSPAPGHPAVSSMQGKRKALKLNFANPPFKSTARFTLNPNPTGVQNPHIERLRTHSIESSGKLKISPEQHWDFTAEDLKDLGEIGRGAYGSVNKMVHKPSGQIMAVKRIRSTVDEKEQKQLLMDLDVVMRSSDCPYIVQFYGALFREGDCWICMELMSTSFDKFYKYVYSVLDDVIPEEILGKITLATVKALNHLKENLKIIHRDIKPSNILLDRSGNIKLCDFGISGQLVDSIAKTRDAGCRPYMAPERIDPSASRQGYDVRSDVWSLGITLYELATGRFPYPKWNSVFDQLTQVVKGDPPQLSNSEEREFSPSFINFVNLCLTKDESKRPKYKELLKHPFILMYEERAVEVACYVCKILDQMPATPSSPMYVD

Nucleolin (Homo sapiens) = Nucleolin (Homo sapiens) (UniProt P19338); assay: Binding affinity to NCL in human NCI-H358 cells at 1 uM by mass spectrometry based pull down assay
[5] = molecular target: Translation initiation factor eIF2B subunit gamma (Homo sapiens) (UniProt Q9NR50); assay: Binding affinity to EIF2B3 in human NCI-H358 cells at 1 uM by mass spectrometry based pull down assay
[6] = molecular target: Thymidine kinase, cytosolic (Homo sapiens) (UniProt P04183); assay: Binding affinity to TK1 in human NCI-H358 cells at 1 uM by mass spectrometry based pull down assay
[7] = molecular target: Methionine--tRNA ligase, cytoplasmic (Homo sapiens) (UniProt P56192); assay: Binding affinity to MARS in human NCI-H358 cells at 1 uM by mass spectrometry based pull down assay
Vinculin (Homo sapiens) = Vinculin (Homo sapiens) (UniProt P18206); assay: Binding affinity to VCL in human NCI-H358 cells at 1 uM by mass spectrometry based pull down assay
[8] = molecular target: Cytosolic iron-sulfur assembly component 2B (Homo sapiens) (UniProt Q9Y3D0); assay: Binding affinity to FAM96B in human NCI-H23 cells at 1 uM by mass spectrometry based pull down assay
[9] = molecular target: StAR-related lipid transfer protein 7, mitochondrial (Homo sapiens) (UniProt Q9NQZ5); assay: Binding affinity to STARD7 in human NCI-H23 cells at 1 uM by mass spectrometry based pull down assay
[10] = molecular target: Pyruvate dehydrogenase E1 component subunit beta, mitochondrial (Homo sapiens) (UniProt P11177); assay: Binding affinity to PDHB in human NCI-H358 cells at 1 uM by mass spectrometry based pull down assay
[11] = molecular target: Signal transducer and activator of transcription 1-alpha/beta (Homo sapiens) (UniProt P42224); assay: Binding affinity to STAT1 in human NCI-H358 cells at 1 uM by mass spectrometry based pull down assay
[12] = molecular target: TGF-beta-activated kinase 1 and MAP3K7-binding protein 1 (Homo sapiens) (UniProt Q15750); assay: Binding affinity to TAB1 in human NCI-H23 cells at 1 uM by mass spectrometry based pull down assay
[13] = molecular target: Hepatocyte growth factor receptor (Homo sapiens) (UniProt P08581); assay: Inhibition of MET in human SKCO1 cells at 1 uM after 4 hrs using biotin labeled TGAKLPVK probe by mass-spectrometric analysis relative to control
Sequence of Hepatocyte growth factor receptor (Homo sapiens) (P08581 whole entry): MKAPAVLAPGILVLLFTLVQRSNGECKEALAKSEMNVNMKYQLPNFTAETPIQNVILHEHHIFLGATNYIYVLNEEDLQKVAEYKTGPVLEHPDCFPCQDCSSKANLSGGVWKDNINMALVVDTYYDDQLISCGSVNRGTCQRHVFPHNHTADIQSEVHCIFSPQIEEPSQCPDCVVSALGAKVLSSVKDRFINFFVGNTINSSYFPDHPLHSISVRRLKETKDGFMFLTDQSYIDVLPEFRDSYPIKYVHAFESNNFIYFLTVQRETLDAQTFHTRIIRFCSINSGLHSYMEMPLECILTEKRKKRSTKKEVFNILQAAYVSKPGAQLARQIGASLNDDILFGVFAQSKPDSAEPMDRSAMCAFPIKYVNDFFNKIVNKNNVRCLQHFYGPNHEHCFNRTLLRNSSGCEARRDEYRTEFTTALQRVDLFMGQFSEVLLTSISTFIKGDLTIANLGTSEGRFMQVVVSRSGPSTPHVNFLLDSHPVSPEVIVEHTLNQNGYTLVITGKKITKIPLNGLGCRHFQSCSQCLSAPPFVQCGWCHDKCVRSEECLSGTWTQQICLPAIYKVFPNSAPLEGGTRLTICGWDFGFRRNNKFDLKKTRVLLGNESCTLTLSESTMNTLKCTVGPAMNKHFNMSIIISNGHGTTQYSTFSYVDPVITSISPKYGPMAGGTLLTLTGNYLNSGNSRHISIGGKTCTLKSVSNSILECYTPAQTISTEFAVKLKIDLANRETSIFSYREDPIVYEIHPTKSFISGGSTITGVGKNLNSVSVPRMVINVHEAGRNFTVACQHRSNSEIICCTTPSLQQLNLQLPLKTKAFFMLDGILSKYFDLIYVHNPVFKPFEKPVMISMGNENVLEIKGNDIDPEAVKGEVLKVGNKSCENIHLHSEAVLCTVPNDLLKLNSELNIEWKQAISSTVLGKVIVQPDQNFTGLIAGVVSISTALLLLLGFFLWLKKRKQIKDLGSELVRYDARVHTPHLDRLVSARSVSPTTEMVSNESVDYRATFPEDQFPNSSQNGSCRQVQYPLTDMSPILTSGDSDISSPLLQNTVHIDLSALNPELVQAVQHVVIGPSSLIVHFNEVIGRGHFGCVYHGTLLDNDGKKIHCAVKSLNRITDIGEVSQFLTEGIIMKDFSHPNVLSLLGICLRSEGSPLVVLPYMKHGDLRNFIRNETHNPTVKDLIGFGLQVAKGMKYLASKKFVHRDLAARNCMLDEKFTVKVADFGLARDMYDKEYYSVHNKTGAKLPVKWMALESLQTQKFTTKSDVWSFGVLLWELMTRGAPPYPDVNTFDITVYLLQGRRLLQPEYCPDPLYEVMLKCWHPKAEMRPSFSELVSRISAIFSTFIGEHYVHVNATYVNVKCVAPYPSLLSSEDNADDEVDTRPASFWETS

Sequence of RuvB-like 2 (Homo sapiens) (Q9Y230 whole entry): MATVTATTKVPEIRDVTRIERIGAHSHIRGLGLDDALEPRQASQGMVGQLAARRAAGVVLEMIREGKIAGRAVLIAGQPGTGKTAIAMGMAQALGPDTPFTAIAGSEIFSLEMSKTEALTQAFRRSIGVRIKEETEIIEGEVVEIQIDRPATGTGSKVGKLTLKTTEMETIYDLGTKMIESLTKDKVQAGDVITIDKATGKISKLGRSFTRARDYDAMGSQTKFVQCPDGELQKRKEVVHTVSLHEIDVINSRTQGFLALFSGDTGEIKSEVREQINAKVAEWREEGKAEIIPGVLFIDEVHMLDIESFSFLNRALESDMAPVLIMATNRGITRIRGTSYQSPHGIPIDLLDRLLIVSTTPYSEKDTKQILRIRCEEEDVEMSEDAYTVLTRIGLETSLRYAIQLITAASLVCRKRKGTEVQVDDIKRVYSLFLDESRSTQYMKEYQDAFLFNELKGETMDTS
Sequence of TGF-beta-activated kinase 1 and MAP3K7-binding protein 1 (Homo sapiens) (Q15750 whole entry): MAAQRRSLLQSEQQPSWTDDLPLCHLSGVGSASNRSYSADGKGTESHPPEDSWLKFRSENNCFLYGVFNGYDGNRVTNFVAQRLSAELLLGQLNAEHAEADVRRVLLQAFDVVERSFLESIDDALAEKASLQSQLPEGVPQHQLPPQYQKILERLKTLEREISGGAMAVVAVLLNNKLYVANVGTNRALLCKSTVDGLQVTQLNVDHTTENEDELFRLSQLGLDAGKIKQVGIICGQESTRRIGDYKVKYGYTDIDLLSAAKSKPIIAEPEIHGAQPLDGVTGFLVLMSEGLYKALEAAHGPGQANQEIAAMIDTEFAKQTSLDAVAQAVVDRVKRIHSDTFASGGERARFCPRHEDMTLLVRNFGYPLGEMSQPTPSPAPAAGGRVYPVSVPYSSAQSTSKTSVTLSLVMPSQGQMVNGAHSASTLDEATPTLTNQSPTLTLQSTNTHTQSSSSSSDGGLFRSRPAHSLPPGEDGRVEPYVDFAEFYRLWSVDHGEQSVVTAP
Sequence of Thymidine kinase, cytosolic (Homo sapiens) (P04183 whole entry): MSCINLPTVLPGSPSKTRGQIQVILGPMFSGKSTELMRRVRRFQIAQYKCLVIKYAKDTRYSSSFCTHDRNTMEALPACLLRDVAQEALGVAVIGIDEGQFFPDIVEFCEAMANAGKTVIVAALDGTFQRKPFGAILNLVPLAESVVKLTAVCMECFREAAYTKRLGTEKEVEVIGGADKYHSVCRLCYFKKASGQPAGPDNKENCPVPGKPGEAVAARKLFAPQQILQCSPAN
Sequence of Pyruvate dehydrogenase E1 component subunit beta, mitochondrial (Homo sapiens) (P11177 whole entry): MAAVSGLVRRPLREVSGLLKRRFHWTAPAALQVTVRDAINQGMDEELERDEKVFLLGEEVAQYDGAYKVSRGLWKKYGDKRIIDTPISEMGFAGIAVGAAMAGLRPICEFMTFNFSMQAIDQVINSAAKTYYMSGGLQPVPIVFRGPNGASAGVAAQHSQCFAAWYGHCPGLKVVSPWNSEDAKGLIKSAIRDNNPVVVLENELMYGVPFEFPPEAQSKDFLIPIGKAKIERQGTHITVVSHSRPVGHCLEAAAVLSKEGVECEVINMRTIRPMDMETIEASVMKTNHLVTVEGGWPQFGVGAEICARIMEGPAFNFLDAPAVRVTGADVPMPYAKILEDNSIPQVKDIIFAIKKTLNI
Sequence of Vinculin (Homo sapiens) (P18206 whole entry): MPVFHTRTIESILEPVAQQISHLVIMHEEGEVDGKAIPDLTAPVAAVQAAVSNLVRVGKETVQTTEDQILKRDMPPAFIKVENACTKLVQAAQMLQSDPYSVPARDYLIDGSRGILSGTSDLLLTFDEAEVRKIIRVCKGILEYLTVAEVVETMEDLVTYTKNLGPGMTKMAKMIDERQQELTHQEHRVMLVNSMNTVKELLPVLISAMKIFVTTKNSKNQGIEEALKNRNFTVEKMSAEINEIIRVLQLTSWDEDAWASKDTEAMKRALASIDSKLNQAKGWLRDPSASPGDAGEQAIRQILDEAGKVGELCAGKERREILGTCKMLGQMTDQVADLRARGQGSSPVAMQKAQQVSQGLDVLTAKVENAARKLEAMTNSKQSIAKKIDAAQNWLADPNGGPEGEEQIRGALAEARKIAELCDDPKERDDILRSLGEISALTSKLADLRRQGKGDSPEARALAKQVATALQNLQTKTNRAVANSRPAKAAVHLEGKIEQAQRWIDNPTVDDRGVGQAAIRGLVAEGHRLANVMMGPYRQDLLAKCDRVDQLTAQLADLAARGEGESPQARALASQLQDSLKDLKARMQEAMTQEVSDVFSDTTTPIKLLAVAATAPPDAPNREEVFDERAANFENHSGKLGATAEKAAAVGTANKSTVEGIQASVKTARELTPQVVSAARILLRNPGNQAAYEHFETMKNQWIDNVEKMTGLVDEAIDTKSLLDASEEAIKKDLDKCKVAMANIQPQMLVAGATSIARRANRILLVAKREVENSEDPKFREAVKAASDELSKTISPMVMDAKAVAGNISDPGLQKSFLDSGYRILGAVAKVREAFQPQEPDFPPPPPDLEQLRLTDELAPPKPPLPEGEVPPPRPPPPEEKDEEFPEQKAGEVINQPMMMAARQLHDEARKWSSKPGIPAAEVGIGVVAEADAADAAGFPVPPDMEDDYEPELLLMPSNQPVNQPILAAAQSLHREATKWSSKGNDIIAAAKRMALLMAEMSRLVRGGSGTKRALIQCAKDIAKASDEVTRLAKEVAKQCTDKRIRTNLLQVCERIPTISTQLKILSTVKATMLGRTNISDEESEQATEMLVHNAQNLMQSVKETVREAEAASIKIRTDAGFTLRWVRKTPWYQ
Sequence of Bridging integrator 3 (Homo sapiens) (Q9NQY0 whole entry): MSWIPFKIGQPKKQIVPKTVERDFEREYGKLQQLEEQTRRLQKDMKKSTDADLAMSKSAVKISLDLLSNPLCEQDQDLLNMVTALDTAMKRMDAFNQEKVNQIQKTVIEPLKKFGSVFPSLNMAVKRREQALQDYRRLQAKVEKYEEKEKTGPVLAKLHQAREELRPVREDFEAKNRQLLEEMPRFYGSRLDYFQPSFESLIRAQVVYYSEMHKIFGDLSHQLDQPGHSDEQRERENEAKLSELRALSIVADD
Sequence of Nucleolin (Homo sapiens) (P19338 whole entry): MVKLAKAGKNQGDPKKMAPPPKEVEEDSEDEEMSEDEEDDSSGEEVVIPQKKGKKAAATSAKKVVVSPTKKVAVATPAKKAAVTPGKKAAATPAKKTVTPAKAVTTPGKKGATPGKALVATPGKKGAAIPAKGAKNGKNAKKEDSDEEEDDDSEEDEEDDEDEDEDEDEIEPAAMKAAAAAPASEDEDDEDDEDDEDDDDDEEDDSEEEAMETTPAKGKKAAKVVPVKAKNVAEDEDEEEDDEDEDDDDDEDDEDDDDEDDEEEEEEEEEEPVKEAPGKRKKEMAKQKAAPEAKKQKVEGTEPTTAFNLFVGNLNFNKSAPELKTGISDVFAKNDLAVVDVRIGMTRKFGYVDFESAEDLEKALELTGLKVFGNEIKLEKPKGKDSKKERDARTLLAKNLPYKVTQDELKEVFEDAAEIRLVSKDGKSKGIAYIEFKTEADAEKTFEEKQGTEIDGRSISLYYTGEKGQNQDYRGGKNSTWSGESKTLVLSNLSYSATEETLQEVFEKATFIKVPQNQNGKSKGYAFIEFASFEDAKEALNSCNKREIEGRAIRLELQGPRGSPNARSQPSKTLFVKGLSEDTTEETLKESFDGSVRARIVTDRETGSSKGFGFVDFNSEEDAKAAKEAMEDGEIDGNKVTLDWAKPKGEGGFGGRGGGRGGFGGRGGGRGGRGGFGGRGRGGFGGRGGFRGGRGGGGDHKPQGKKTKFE

| Activity [1] | Activity [2] | Activity [3] | Activity [4] | Activity (Nucleolin (Homo sapiens)) | Activity [5] | Activity [6] | Activity [7] | Activity (Vinculin (Homo sapiens)) | Activity [8] | Activity [9] | Activity [10] | Activity [11] | Activity [12] | Compound | inhibition [13] [%] |
| --- | --- | --- | --- | --- | --- | --- | --- | --- | --- | --- | --- | --- | --- | --- | --- |
| Active | Active | Active | Active | Active | Active | Active | Active | Active | Active | Active | Active | Active | Active | C=CC(=O)Nc1ccccc1Nc1nc(Nc2ccc(N3CCN(CCOCCOCCOCCNC(=O)CCCC[C@@H]4SC[C@@H]5NC(=O)N[C@@H]54)CC3)cc2)ncc1Cl |  |
|  |  |  |  |  |  |  |  |  |  |  |  |  |  | C=CC(=O)Nc1ccccc1Oc1nc(Nc2cnn(CCOC)c2)ncc1Cl | -1.9 |
